Measurements taken from publication PMC4686834, “Autocrine selection of a GLP-1R G-protein biased agonist with potent antidiabetic effects” (Nature Communications, 2015).
*1 amine or outer side, *2 acyl side, *3 side chain or, on linkers, in order; H or OH if unused. Where a SMILES comes first, the peptide text is derived from it. Bridges are numbered along the chain shown (N, C = ends). [ ]: non-standard residue; d: D form. The star is where a group is joined. Leu(3R-OH,Nα-propionyl) = CCC(=O)N[C@H](C(=O)*)[C@H](O)C(C)C; X1 = CC(C)[C@@H](O[*:3])[C@H](N[*:1])C(=O)[*:2]; NMeT = CN[C@H](C(=O)O)[C@@H](C)O; dPhLac = O=C(O)[C@H](O)Cc1ccccc1; NMeA = CN[C@@H](C)C(=O)O; NMeDha = C=C(NC)C(=O)O

Key:
[1] = molecular target: T1, human GLP-1R (Homo sapiens, UniProt P43220); assay: Intracellular calcium mobilization (Gαq), FLIPR, CHO cells expressing the human GLP-1R; format: cell-based; conditions: 1 μM FR900359 in loading medium; CHO-GLP-1R expressing cells
T1 construct: expressed in transfected cells
Protocol: The stable CHO cell line (generated in-house using CHO-K1 cell line purchased from ATCC) expressing a functional human GLP-1R was cultured in F12 medium (Gibco) supplemented with 10% fetal bovine serum and 500 μg ml^−1 geneticin.

[2] = test system: human GLP-1R; assay: Ligand bias, equiactive comparison with Ex4 as reference; format: cell-based

T1 sequence (P43220 24-463): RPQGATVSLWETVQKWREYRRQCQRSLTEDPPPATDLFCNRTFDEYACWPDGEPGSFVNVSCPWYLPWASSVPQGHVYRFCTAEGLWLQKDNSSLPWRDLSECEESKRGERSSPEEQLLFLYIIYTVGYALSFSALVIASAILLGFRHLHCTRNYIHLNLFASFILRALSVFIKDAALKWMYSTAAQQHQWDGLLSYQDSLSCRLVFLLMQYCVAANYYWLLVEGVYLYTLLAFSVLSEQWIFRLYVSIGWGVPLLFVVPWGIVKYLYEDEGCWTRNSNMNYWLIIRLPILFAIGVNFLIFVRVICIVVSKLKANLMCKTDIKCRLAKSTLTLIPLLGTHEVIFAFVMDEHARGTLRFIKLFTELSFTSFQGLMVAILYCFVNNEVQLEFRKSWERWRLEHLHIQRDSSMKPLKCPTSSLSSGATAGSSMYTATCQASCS

SMILES | Inhibition of P5-induced increase in [Ca2+]i [1] | Ligand bias (in words) [2] | Bias factor (β), Gq vs β-arrestin 1 ([2]; mean ± s.d.) | Bias factor (β), Gq vs β-arrestin 2 ([2]; mean ± s.d.) | Bias factor (β), Gs vs β-arrestin 2 ([2]; mean ± s.d.) | Bias factor (β), Gs vs β-arrestin 1 ([2]; mean ± s.d. of a typical experiment performed three times)
C=C1C(=O)N[C@@H](C)C(=O)N(C)[C@@H](C)C(=O)N[C@@H]([C@H](OC(=O)[C@@H](NC(=O)CC)[C@H](O)C(C)C)C(C)C)C(=O)N(C)[C@@H]([C@@H](C)OC)C(=O)O[C@H](C(C)C)[C@H](NC(C)=O)C(=O)O[C@H](Cc2ccccc2)C(=O)N1C [FR900359] (Ac-[X1][dPhLac][NMeDha]A[NMeA][X1](Leu(3R-OH,Nα-propionyl))[NMeT](Me); ester 1-C) | inhibited |  |  |  |  | 
CC[C@H](C)[C@H](NC(=O)[C@H](Cc1ccccc1)NC(=O)[C@H](CCC(=O)O)NC(=O)[C@H](CCCCN)NC(=O)[C@H](C)NC(=O)[C@H](C)NC(=O)[C@H](CCC(N)=O)NC(=O)CNC(=O)[C@H](CCC(=O)O)NC(=O)[C@H](CC(C)C)NC(=O)[C@H](Cc1ccc(O)cc1)NC(=O)[C@H](CO)NC(=O)[C@H](CO)NC(=O)[C@@H](NC(=O)[C@H](CC(=O)O)NC(=O)[C@H](CO)NC(=O)[C@@H](NC(=O)[C@H](Cc1ccccc1)NC(=O)[C@@H](NC(=O)CNC(=O)[C@H](CCC(=O)O)NC(=O)[C@H](C)NC(=O)[C@@H](N)Cc1c[nH]cn1)[C@@H](C)O)[C@@H](C)O)C(C)C)C(=O)N[C@@H](C)C(=O)N[C@@H](Cc1c[nH]c2ccccc12)C(=O)N[C@@H](CC(C)C)C(=O)N[C@H](C(=O)N[C@@H](CCCCN)C(=O)NCC(=O)N[C@@H](CCCNC(=N)N)C(N)=O)C(C)C [GLP-1, glucagon-like peptide-1] |  | did not demonstrate detectable bias | 0.16 ± 0.13 | 0.2 ± 0.08 | -0.04 ± 0.11 | -0.08 ± 0.11
